Measured values: ChEMBL document CHEMBL5104196, “Discovery of Novel, Potent, and Selective Small-Molecule Menin-Mixed Lineage Leukemia Interaction Inhibitors through Attempting Introduction of Hydrophilic Groups” (J Med Chem, 2022)
Values after ≈ are worked out from the molar mass of the structure shown. Active and inactive are the calls of the source. The rule behind the calls is not given here.

What was measured:
[1] = Metabolic stability in Beagle dog liver microsome assessed as compound remaining measured after 60 min by UPLC-MS/MS analysis; assay type: ADME, Canis lupus familiaris; settings: liver microsomes, read-out: Stability
[2] = tested on: HL-60; experiment: Antiproliferative activity against human […] assessed as cell growth inhibition measured for 72 hrs by MTT assay; assay type: functional, cell-based; settings: HL-60, 72 h
[3] = Volume of distribution at steady state in Sprague-Dawley rat at 5 mg/kg, iv; assay type: ADME, organism-based; settings: in vivo
[4] = Metabolic stability in Crab eating monkey liver microsome assessed as intrinsic clearance measured upto 60 min by UPLC-MS/MS analysis; assay type: ADME, Macaca fascicularis; settings: cynomolgus monkey, microsomes, 1 h
[5] = target: Menin/Histone-lysine N-methyltransferase MLL (Homo sapiens, UniProt O00255); experiment: Inhibition of Menin/fluorescein labeled MLL(4 to 43 residues) (unknown origin) protein protein interaction incubated for 1 hr by fluorescence polarization-based competitive binding assay
Chain of Menin/Histone-lysine N-methyltransferase MLL (O00255 whole entry, the tested form may be a part): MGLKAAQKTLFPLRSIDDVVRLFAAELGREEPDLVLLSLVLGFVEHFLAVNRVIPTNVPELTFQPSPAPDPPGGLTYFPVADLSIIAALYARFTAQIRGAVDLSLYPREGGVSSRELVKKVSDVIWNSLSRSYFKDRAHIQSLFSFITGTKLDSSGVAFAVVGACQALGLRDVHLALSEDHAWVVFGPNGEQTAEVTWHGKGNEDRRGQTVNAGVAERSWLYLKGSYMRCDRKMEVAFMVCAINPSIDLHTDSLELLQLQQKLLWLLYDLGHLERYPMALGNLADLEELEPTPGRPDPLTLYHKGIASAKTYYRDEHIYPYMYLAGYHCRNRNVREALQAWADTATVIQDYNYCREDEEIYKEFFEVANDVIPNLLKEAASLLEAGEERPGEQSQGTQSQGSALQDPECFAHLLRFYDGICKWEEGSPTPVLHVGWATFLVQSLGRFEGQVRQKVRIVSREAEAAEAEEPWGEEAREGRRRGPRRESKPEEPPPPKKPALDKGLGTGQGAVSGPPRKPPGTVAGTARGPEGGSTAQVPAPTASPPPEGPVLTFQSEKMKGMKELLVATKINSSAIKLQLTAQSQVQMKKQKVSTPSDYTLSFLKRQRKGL
Chain of Menin/Histone-lysine N-methyltransferase MLL (Q03164 1-2718 partner limits assumed): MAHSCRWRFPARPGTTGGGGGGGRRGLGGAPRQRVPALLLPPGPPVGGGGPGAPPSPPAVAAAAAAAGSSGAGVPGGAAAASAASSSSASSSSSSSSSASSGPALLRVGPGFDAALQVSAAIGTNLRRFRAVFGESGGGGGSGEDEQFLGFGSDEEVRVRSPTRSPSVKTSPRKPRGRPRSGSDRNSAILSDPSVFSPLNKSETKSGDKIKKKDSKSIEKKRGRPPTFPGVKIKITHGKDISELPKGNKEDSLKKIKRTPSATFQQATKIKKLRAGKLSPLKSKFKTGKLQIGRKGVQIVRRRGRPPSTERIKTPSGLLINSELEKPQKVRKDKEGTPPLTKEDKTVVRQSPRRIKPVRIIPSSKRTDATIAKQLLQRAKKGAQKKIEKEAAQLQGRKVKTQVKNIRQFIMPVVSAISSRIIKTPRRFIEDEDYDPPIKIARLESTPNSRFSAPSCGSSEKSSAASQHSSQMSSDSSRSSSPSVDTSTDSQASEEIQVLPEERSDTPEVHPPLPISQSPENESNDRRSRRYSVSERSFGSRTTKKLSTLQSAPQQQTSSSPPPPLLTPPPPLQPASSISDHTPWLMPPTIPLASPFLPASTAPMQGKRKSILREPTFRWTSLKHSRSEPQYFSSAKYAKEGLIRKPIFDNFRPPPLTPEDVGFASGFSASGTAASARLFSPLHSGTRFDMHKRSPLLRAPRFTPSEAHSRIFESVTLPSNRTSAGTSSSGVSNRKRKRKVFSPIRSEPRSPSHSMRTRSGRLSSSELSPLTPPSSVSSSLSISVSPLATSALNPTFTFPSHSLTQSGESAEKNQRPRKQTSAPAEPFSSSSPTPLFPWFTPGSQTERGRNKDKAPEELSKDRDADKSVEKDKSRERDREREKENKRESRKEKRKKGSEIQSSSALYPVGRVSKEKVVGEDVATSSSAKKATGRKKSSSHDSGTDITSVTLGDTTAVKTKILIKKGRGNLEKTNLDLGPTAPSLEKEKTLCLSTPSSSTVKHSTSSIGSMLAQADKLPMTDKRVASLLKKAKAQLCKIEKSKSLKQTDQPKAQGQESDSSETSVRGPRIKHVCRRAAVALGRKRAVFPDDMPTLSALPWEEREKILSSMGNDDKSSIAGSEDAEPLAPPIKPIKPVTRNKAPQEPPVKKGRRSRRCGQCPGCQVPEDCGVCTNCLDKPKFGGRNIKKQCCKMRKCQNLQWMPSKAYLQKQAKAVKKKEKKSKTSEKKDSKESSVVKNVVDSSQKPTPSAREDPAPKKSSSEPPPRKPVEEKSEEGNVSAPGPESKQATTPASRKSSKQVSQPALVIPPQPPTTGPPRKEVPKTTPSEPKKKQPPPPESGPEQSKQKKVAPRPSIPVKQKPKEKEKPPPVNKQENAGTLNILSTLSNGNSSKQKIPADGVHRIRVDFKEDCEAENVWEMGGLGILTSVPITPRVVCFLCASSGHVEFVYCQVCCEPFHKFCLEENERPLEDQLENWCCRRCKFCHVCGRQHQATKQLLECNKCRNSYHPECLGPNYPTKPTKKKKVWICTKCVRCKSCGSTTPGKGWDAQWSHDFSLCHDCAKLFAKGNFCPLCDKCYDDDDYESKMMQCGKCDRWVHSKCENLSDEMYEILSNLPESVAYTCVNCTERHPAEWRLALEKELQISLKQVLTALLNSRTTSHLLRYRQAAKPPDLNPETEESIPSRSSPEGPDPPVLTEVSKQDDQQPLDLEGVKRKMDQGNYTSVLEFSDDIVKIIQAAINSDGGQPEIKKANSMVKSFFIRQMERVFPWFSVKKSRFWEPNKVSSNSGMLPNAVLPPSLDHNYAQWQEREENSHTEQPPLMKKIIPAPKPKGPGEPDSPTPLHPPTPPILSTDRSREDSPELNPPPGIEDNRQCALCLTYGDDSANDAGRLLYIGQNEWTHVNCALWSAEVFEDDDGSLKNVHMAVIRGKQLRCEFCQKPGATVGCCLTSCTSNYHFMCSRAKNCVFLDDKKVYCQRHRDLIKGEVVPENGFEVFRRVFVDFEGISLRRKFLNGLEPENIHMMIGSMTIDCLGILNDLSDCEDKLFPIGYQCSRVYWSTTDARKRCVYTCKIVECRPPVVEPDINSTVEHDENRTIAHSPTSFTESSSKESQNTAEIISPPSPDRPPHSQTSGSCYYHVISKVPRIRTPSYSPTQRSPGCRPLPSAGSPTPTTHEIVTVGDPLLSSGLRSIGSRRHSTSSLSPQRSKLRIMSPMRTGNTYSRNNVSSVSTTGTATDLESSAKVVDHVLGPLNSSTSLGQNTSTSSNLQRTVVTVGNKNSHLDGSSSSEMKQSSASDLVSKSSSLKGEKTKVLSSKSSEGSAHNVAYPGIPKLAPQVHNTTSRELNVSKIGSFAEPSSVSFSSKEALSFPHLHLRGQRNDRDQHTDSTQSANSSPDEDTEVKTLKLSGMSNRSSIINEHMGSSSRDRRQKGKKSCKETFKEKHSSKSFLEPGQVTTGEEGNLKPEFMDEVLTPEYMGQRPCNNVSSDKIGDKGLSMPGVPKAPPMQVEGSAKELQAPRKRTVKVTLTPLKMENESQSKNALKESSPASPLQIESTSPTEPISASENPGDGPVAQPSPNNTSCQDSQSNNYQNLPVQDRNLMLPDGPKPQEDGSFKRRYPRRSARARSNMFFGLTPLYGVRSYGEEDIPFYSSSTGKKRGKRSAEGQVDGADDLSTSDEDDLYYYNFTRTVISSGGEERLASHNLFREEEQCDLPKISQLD
Chain of Menin/Histone-lysine N-methyltransferase MLL (Q03164 2719-3969 partner limits assumed): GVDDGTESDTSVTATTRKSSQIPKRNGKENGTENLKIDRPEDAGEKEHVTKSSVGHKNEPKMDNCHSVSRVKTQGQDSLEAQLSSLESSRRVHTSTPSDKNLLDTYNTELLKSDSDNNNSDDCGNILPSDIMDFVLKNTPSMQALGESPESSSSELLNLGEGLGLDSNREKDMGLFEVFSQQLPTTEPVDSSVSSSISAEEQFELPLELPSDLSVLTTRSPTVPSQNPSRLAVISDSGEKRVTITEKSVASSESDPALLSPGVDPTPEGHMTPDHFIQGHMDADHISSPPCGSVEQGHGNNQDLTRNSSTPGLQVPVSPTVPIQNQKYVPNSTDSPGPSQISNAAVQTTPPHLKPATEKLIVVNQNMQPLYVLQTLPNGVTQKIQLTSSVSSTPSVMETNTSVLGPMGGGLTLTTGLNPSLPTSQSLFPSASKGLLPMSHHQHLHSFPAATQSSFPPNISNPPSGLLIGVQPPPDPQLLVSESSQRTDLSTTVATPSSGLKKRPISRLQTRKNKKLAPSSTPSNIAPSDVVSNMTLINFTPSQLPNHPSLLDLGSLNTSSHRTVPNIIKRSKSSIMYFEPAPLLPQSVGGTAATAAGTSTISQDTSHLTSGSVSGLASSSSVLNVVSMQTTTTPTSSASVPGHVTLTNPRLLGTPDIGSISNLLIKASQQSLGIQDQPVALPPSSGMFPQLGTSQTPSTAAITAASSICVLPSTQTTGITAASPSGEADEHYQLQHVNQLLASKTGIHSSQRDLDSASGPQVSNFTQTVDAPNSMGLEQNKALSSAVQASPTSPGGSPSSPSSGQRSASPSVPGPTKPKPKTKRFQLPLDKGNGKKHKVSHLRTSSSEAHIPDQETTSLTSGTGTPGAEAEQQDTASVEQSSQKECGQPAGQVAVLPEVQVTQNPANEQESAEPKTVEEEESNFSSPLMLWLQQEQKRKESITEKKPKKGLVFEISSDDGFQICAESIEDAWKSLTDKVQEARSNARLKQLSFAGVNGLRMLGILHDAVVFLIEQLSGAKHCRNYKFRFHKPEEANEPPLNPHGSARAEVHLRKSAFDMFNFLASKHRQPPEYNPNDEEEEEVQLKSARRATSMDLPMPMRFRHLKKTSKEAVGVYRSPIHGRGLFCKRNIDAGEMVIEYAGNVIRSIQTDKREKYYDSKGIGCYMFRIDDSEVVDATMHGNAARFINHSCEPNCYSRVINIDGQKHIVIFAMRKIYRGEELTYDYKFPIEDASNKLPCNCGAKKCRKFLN

[6] = species on record: Homo sapiens; experiment: Inhibition of GAMK (unknown origin) at 1 uM in presence of ATP at Km concentration by Mobility shift assay relative to control
[7] = Oral bioavailability in Sprague-Dawley rat at 15 mg/kg; assay type: ADME, organism-based; settings: in vivo
[8] = tested on: MV4-11; experiment: Antiproliferative activity against human MV4-11 cells harboring MLL-AF4 assessed as cell growth inhibition measured for 72 hrs by MTT assay; assay type: functional, cell-based; settings: MV4-11, 72 h
[9] = target: Casein kinase I (Homo sapiens) (UniProt Q9HCP0+P78368+P48730+P49674+P48729); experiment: Inhibition of CK1 (unknown origin) at 1 uM in presence of ATP at Km concentration by Mobility shift assay relative to control; assay type: protein assay
[10] = Metabolic stability in Crab eating monkey liver microsome assessed as half life measured upto 60 min by UPLC-MS/MS analysis; assay type: ADME, Macaca fascicularis; settings: cynomolgus monkey, liver microsomes
[11] = Metabolic stability in CD-1 mouse liver microsome assessed as half life measured upto 60 min by UPLC-MS/MS analysis; assay type: ADME; settings: liver microsomes
[12] = Cmax in Sprague-Dawley rat at 5 mg/kg, iv; assay type: ADME, organism-based; design: dose 5 mg/kg, route iv; settings: in vivo
[13] = species on record: Homo sapiens; experiment: Inhibition of TKL (unknown origin) at 1 uM in presence of ATP at Km concentration by Mobility shift assay relative to control
[14] = tested on: MV4-11; experiment: Induction of cell cycle arrest in human MV4-11 cells assessed as accumulation at G2/M phase at 0.1 to 10 uM incubated for 24 hrs by PI/RNase staining based flow cytometry analysis; assay type: functional; settings: dose 0.1-10 µM
[15] = tested on: MV4-11; experiment: Antitumor activity against human MV4-11 cells xenografted in BALB/c nude mouse assessed as tumor growth inhibition at 30 mg/kg, po administered every second day for 16 days by calipers analysis; assay type: functional; settings: MV4-11, 384 h, time 16 day, read-out: TGI
[16] = Metabolic stability in human liver assessed as intrinsic clearance measured upto 60 min by UPLC-MS/MS analysis; assay type: ADME, tissue-based; settings: read-out: CLH
[17] = MRT in Sprague-Dawley rat at 5 mg/kg, iv; assay type: ADME, organism-based; settings: in vivo
[18] = tested on: MV4-11; experiment: Induction of cell cycle arrest in human MV4-11 cells assessed as accumulation at S phase at 0.1 to 10 uM incubated for 24 hrs by PI/RNase staining based flow cytometry analysis; assay type: functional; settings: dose 0.1-10 µM
[19] = tested on: MV4-11; experiment: Antiproliferative activity against human MV4-11 cells assessed as reduction in cell viability measured for 3 days by cell counting assay; assay type: functional, cell-based; settings: MV4-11, 72 h
[20] = Metabolic stability in Beagle dog liver microsome assessed as half life measured upto 60 min by UPLC-MS/MS analysis; assay type: ADME, Canis lupus familiaris; settings: liver microsomes
[21] = Metabolic stability in CD-1 mouse liver microsome assessed as compound remaining measured after 60 min by UPLC-MS/MS analysis; assay type: ADME; settings: liver microsomes, read-out: Stability
[22] = Metabolic stability in Crab eating monkey liver assessed as intrinsic clearance measured upto 60 min by UPLC-MS/MS analysis; assay type: ADME, tissue-based, Macaca fascicularis; settings: cynomolgus monkey, read-out: CLH
[23] = Solubility of compound in phosphate buffer at pH 7.4 by spectrophotometric analysis; assay type: physicochemical
[24] = Metabolic stability in Sprague-Dawley rat liver microsome assessed as half life measured upto 60 min by UPLC-MS/MS analysis; assay type: ADME; settings: liver microsomes
[25] = Metabolic stability in Sprague-Dawley rat liver microsome assessed as compound remaining measured after 60 min by UPLC-MS/MS analysis; assay type: ADME; settings: liver microsomes, read-out: Stability
[26] = tested on: MV4-11; experiment: Reversible differentiation arrest in human MV4-11 cells at 0.1 to 10 uM measured after 7 days by flow cytometric analysis; assay type: functional, cell-based; settings: dose 0.1-10 µM, time 7.0 day
[27] = tested on: MV4-11; experiment: Downregulation of HOXA9 gene in human MV4-11 cells incubated for 24 hrs by real-time PCR analysis; assay type: functional, cell-based; settings: dose 0.1-10 µM, DDE = dose-dependent effect
[28] = Half life in Sprague-Dawley rat at 15 mg/kg, po; assay type: ADME, organism-based; settings: in vivo
[29] = Tmax in Sprague-Dawley rat at 15 mg/kg, po; assay type: ADME, organism-based; settings: in vivo
[30] = tested on: MV4-11; experiment: Antitumor activity against human MV4-11 cells xenografted in BALB/c nude mouse assessed as tumor growth inhibition at 6 mg/kg, po administered every second day for 16 days by calipers analysis; assay type: functional; settings: MV4-11, 384 h, time 16 day, read-out: TGI
[31] = tested on: MV4-11; experiment: Induction of apoptosis in human MV4-11 cells incubated for 24 hrs by annexinV/PI staining based flow cytometry analysis; assay type: functional, cell-based; settings: dose 0.1-10 µM, DDE = dose-dependent effect
[32] = AUC (0 to infinity) in Sprague-Dawley rat at 5 mg/kg, iv; assay type: ADME, organism-based; design: time infinity, dose 5 mg/kg, route iv; settings: in vivo
[33] = species on record: Homo sapiens; experiment: Inhibition of CMGC (unknown origin) at 1 uM in presence of ATP at Km concentration by Mobility shift assay relative to control
[34] = Metabolic stability in Crab eating monkey liver microsome assessed as compound remaining measured after 60 min by UPLC-MS/MS analysis; assay type: ADME, Macaca fascicularis; settings: cynomolgus monkey, liver microsomes, read-out: Stability
[35] = Metabolic stability in CD-1 mouse liver assessed as intrinsic clearance measured upto 60 min by UPLC-MS/MS analysis; assay type: ADME, tissue-based; settings: read-out: CLH
[36] = Metabolic stability in human liver microsome assessed as intrinsic clearance measured upto 60 min by UPLC-MS/MS analysis; assay type: ADME; settings: microsomes, 1 h
[37] = Volume of distribution at steady state in Sprague-Dawley rat at 15 mg/kg, po; assay type: ADME, organism-based; settings: in vivo
[38] = Metabolic stability in CD-1 mouse liver microsome assessed as intrinsic clearance measured upto 60 min by UPLC-MS/MS analysis; assay type: ADME; settings: microsomes, 1 h
[39] = Total clearance in Sprague-Dawley rat at 5 mg/kg, iv; assay type: ADME, organism-based; settings: in vivo
[40] = tested on: MV4-11; experiment: Induction of cell differentiation in human MV4-11 cells assessed as increase in CD11b expression at 10 uM measured after 7 days by flow cytometric analysis; assay type: functional, cell-based; settings: time 7.0 day
[41] = Metabolic stability in human liver microsome assessed as half life measured upto 60 min by UPLC-MS/MS analysis; assay type: ADME; settings: liver microsomes
[42] = Metabolic stability in Beagle dog liver assessed as intrinsic clearance measured upto 60 min by UPLC-MS/MS analysis; assay type: ADME, tissue-based, Canis lupus familiaris; settings: read-out: CLH
[43] = Half life in Sprague-Dawley rat at 5 mg/kg, iv; assay type: ADME, organism-based; settings: in vivo
[44] = tested on: MV4-11; experiment: Antiproliferative activity against human MV4-11 cells assessed as reduction in cell viability measured for 3 days followed by replacement with fresh medium of compound and measured after 72 hrs by cell counting assay; assay type: functional, cell-based; settings: MV4-11, 72 h
[45] = Total clearance in Sprague-Dawley rat at 15 mg/kg, po; assay type: ADME, organism-based; settings: in vivo

remaining at 1 h [1]: 65%
IC50 [2]: > 10 µM
Vdss [3]: 49.3 L/kg
CLint [4]: 22 µL/min/mg
IC50 [5]: 0.007 µM
inhibition [6]: < 25%
bioavailability [7]: 16.9%
IC50 [8]: 0.3 µM
inhibition [9]: < 25%
half-life [10]: 1.08 h
half-life [11]: 3.38 h
Cmax [12]: 1190 ng/mL
inhibition [13]: < 25%
CLint scaled [16]: 8 mL/min/kg
MRT [17]: 7.1 h
IC50 [19]: 0.36 µM
half-life [20]: 1.7 h
remaining at 1 h [21]: 82%
CLint scaled [22]: 31.7 mL/min/kg
solubility [23]: 398 µg/mL (≈ 704 µM)
half-life [24]: 2.75 h
remaining at 1 h [25]: 77%
half-life [28]: 15.5 h
Tmax [29]: 7.3 h
AUC(0-inf) [32]: 2500 ng·h/mL
inhibition [33]: < 25%
remaining at 1 h [34]: 52%
CLint scaled [35]: 28.2 mL/min/kg
CLint [36]: 8.4 µL/min/mg
Vdss [37]: 23 L/kg
CLint [38]: 7.2 µL/min/mg
CL [39]: 34.27 mL/min/kg
half-life [41]: 3.2 h
CLint scaled [42]: 20 mL/min/kg
half-life [43]: 17.5 h
IC50 [44]: 0.3 µM
CL/F [45]: 179 mL/min/kg
Structure (SMILES): CN(C)CCOc1ccc2ncnc(NC3CCN(CC4CN(c5ccc(S(=O)(=O)C6CC6)cc5)C4)CC3)c2n1
Activity [14]: Active
inhibition in vivo at 30 mg/kg [15]: 97%
Activity [18]: Active
Activity [26]: Active
Activity [27]: Dde
inhibition in vivo at 6 mg/kg [30]: 64%
Activity [31]: Dde
Activity [40]: Active
